Measured values from PubChem BioAssay (NCI).
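Cells were grown in 96-well plates and exposed to each compound for 48 hours at five concentrations; endpoints were interpolated linearly between bracketing concentrations, or set to the highest concentration if not reached. At the GI50, growth is halved. The concentration for full growth arrest is given as TGI.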

Key:
Assay in all cases: DTP human tumour cell line panel, 48 h
[1] = test system: MALME-3M melanoma
[2] = test system: TK-10 renal
[3] = test system: CCRF-CEM leukemia
[4] = test system: SK-MEL-28 melanoma
[5] = test system: HCC-2998 colon
[6] = test system: NCI-H460 lung
[7] = test system: SF-268 CNS
[8] = test system: MCF7 breast
[9] = test system: MDA-MB-231 breast
[10] = test system: NCI/ADR-RES ovarian

Compound	TGI [1]	TGI [2]	TGI [3]	TGI [4]	TGI [5]	TGI [6]	TGI [7]	GI50 [8]	TGI [8]	GI50 [1]	GI50 [2]	GI50 [3]	GI50 [4]	GI50 [5]	GI50 [6]	GI50 [7]	GI50 [9]	TGI [9]	GI50 [10]	TGI [10]
CCCCCCCCCCCCCCCCc1c(C(=O)OC)nc(NC#N)[nH]c1=O	> 25 µM	> 25 µM	> 25 µM	> 25 µM	> 25 µM	> 25 µM	> 25 µM	–	–	–	–	–	–	–	–	–	–	–	–	–
C=CC12CCCCC1CC(C(=O)OC)=C(O)C2 (stereo unspecified)	–	> 100 µM	> 100 µM	> 100 µM	> 100 µM	> 100 µM	> 100 µM	–	–	–	–	–	–	–	–	–	–	–	–	–
COC(=O)c1c2c(c(C)[n+]([O-])c1C)C(=O)C(NCc1ccccc1)=CC2=O	1.88 µM	18.7 µM	22.3 µM	22.2 µM	7.98 µM	10.9 µM	9.69 µM	1.65 µM	3.73 µM	0.617 µM	4.48 µM	2.98 µM	4.63 µM	2.8 µM	2.74 µM	2.81 µM	–	–	–	–
N#CC(Sc1ccccc1)C(N)=O (stereo unspecified)	> 100 µM	> 100 µM	> 100 µM	–	> 100 µM	–	> 100 µM	–	–	–	–	–	–	–	–	–	–	–	–	–
CCCCN(CCCC)P(=O)(Oc1ccccc1)Oc1ccccc1	–	33.1 µM	59.3 µM	29.2 µM	22.2 µM	18.9 µM	21.9 µM	4.83 µM	18.6 µM	–	15.8 µM	8.35 µM	15.3 µM	10 µM	5.24 µM	8.86 µM	8.08 µM	23.3 µM	5.23 µM	18.7 µM
Cc1[nH]c2ccccc2c1CO	–	67.1 µM	> 100 µM	34.3 µM	47.2 µM	31.6 µM	22.9 µM	21.3 µM	51.5 µM	–	21 µM	32.8 µM	16.6 µM	21.2 µM	16.9 µM	10.2 µM	18.1 µM	54.7 µM	19.5 µM	60.3 µM
COc1cc2c3c(n(CCCN=[N+]=[N-])c(=O)c2cc1OC)-c1ccccc1C3=O	–	75.5 µM	> 100 µM	> 100 µM	> 100 µM	> 100 µM	> 100 µM	5.35 µM	> 100 µM	–	13.8 µM	3.37 µM	> 100 µM	94.2 µM	5.2 µM	> 100 µM	> 100 µM	> 100 µM	4.59 µM	75.2 µM
CC1OC(n2cc(F)c(=O)[nH]c2=O)CCC1=O (stereo unspecified)	> 100 µM	> 100 µM	> 100 µM	–	> 100 µM	> 100 µM	> 100 µM	–	–	–	–	–	–	–	–	–	–	–	–	–
c1cc[c]([Ge]([O]c2cccc3cccnc23)([c]2ccccc2)[c]2ccccc2)cc1	22.4 µM	20.3 µM	–	14.3 µM	6.16 µM	12.2 µM	15 µM	–	–	10.4 µM	7.36 µM	–	3.56 µM	2.54 µM	3.37 µM	3.55 µM	–	–	–	–
O=CCCn1[nH]c(=O)ccc1=O	> 100 µM	> 100 µM	> 100 µM	> 100 µM	> 100 µM	> 100 µM	> 100 µM	–	–	–	–	–	–	–	–	–	–	–	–	–
COc1ccc(C)c2sc(N(Cc3cccnc3)C(=O)c3ccc(C#N)cc3)nc12	> 100 µM	> 100 µM	> 100 µM	–	> 100 µM	> 100 µM	> 100 µM	–	–	52.1 µM	58.4 µM	36.6 µM	–	46.6 µM	40 µM	58.7 µM	38.2 µM	> 100 µM	37.7 µM	> 100 µM
COc1ccc(O)c(/C=N\Nc2ccccc2)c1	–	–	–	91.4 µM	5.33 µM	> 100 µM	> 100 µM	–	> 100 µM	–	–	–	–	–	–	–	–	> 100 µM	–	> 100 µM
O=S1Nc2cccc(C(F)(F)F)c2S1 (stereo unspecified)	> 100 µM	> 100 µM	29.3 µM	> 100 µM	64.4 µM	> 100 µM	> 100 µM	–	–	–	–	–	–	–	–	–	–	–	–	–
O=CN/C=C/c1ccccc1	> 100 µM	> 100 µM	> 100 µM	> 100 µM	> 100 µM	> 100 µM	> 100 µM	–	–	–	–	–	–	–	–	–	–	–	–	–
C=CCCn1nc(-c2ccccc2)oc1=O	> 100 µM	> 100 µM	> 100 µM	> 100 µM	> 100 µM	> 100 µM	> 100 µM	–	–	–	–	–	–	–	–	–	–	–	–	–
O=C1CCCc2ccc([N+](=O)[O-])c(O)c21	> 100 µM	> 100 µM	> 100 µM	> 100 µM	> 100 µM	> 100 µM	> 100 µM	–	–	–	–	–	–	–	–	–	–	–	–	–

Compound	TGI [1]	TGI [2]	TGI [3]	TGI [4]	TGI [5]	TGI [6]	TGI [7]	GI50 [8]	TGI [8]	GI50 [1]	GI50 [2]	GI50 [3]	GI50 [4]	GI50 [5]	GI50 [6]	GI50 [7]	GI50 [9]	TGI [9]	GI50 [10]	TGI [10]
COc1cccc2c1C(=O)c1c(O)c3c(c(O)c1C2=O)C[C@](O)(C(=O)CO)C[C@H]3O[C@@H]1C[C@@H](NC(=O)CCCN(C)C2(c3ccc(F)cc3)CC3CCC2C3)[C@H](O)[C@@H](C)O1 (stereo partly specified)	1.76 µM	1.64 µM	3.29 µM	1.72 µM	1.55 µM	1.22 µM	–	–	–	0.914 µM	0.78 µM	0.927 µM	0.946 µM	0.826 µM	0.545 µM	–	0.771 µM	1.54 µM	8.47 µM	50 µM
O=Cc1ccc(-c2ccc(-c3nc4ccccc4s3)cc2)o1	–	54 µM	–	> 100 µM	> 100 µM	> 100 µM	> 100 µM	1.53 µM	56.6 µM	–	22.4 µM	–	> 100 µM	> 100 µM	76.4 µM	72.6 µM	22 µM	68.1 µM	97.7 µM	> 100 µM
C[C@@H]1CC[C@@]2(C)OC(c3ccccc3)[C@H](CO)N2C1=O (stereo partly specified)	> 100 µM	> 100 µM	–	> 100 µM	–	> 100 µM	> 100 µM	–	–	–	–	–	–	–	–	–	–	–	–	–
COc1ccc2cc3c4cc(OC)c(OC)cc4ccn3c2c1	> 100 µM	> 100 µM	> 100 µM	> 100 µM	> 100 µM	> 100 µM	> 100 µM	–	–	–	–	–	–	–	–	–	–	–	–	–
O/N=C1/CCCC/C1=C\c1ccc(Cl)c(Cl)c1	–	> 100 µM	59.7 µM	> 100 µM	75.3 µM	57.1 µM	> 100 µM	–	–	–	–	–	–	–	–	–	–	–	–	–
COc1ccc(/C=C/c2onc3c(=O)n(C)nc(-c4ccccc4)c23)cc1	–	> 100 µM	> 100 µM	> 100 µM	–	> 100 µM	> 100 µM	–	–	–	–	–	–	–	–	–	–	–	–	–
NC1=NN(c2ccccc2)C(=O)C1C(=O)C(=O)Nc1ccccc1 (stereo unspecified)	> 100 µM	> 100 µM	> 100 µM	–	> 100 µM	> 100 µM	> 100 µM	–	–	–	–	–	–	–	–	–	–	–	–	–
O=C(O)c1cnc2c(ccc3[nH]cccc32)c1=O	> 100 µM	> 100 µM	> 100 µM	> 100 µM	> 100 µM	> 100 µM	> 100 µM	–	–	–	–	–	–	–	–	–	–	–	–	–
CCN1/C(=C/C(C)=C/c2sc3ccc4ccccc4c3[n+]2CC)Sc2ccc3ccccc3c21	–	0.997 µM	–	0.329 µM	–	0.329 µM	0.678 µM	0.149 µM	0.42 µM	–	0.217 µM	–	0.165 µM	–	0.121 µM	0.198 µM	0.271 µM	1.04 µM	0.964 µM	5.61 µM
CCOC(=O)C1CC(=O)C=C2CCCCC21 (stereo unspecified)	> 100 µM	> 100 µM	> 100 µM	> 100 µM	> 100 µM	> 100 µM	> 100 µM	–	–	–	–	–	–	–	–	–	–	–	–	–
CCCN(CCC)c1ccc(/C=N/NC(=O)c2cccnc2)c(C)c1	28.2 µM	38.5 µM	52.3 µM	43.1 µM	32.1 µM	28.3 µM	31.2 µM	17.7 µM	36.8 µM	13 µM	16 µM	16.4 µM	16.4 µM	14.3 µM	14.2 µM	13.9 µM	–	–	15.2 µM	51.5 µM
CC(=O)N1c2ccccc2N(C(C)=O)C1c1ccc(C2N(C(C)=O)c3ccccc3N2C(C)=O)[nH]1	> 100 µM	> 100 µM	> 100 µM	–	> 100 µM	> 100 µM	> 100 µM	–	–	–	–	–	–	–	–	–	–	–	–	–
CCOC(=O)NC(=O)c1cn(CCSCCOC(=O)NCCCCCCNC(=O)OCCSCCn2cc(C(=O)NC(=O)OCC)c(=O)n(C)c2=O)c(=O)n(C)c1=O	72.2 µM	> 100 µM	> 100 µM	> 100 µM	> 100 µM	> 100 µM	> 100 µM	–	–	–	–	–	–	–	–	–	–	–	–	–
Cn1cnc([N+](=O)[O-])c1Sc1n[nH]c(-c2ccc(Cl)cc2)n1	26.4 µM	43.8 µM	39.6 µM	30.3 µM	40.6 µM	53.6 µM	50.7 µM	–	–	–	–	–	–	–	–	–	–	–	–	–
OCC1OC(N2C=C(c3nc4ccccc4s3)C3C=CC=CC32)C(O)C(O)C1O (stereo unspecified)	–	32 µM	–	> 50 µM	–	> 50 µM	> 50 µM	18.1 µM	> 50 µM	–	12.5 µM	–	19.2 µM	–	24 µM	15 µM	15.4 µM	> 50 µM	> 50 µM	> 50 µM
COc1ccc(C2(Cl)C(Cl)(C(F)(F)F)C2(Cl)C(F)(F)F)cc1 (stereo unspecified)	–	32 µM	33.2 µM	29 µM	29.8 µM	30.2 µM	29 µM	–	–	–	–	–	–	–	–	–	–	–	–	–
